Data taken from the supplement of paper PMC10307832.

Legend:
Assay in all cases: relative viability (nuclei count vs DMSO), 5 days (fraction); higher = more cells survive
[1] = compound: C1COCCN1C2=NC(=NC3=C2OC4=C3C=CC=N4)C5=CC(=CC=C5)NC(=O)C6=CN=C(C=C6)N + CS(=O)(=O)CCNCc1ccc(-c2ccc3ncnc(Nc4ccc(OCc5cccc(F)c5)c(Cl)c4)c3c2)o1 [Lapatinib] (partner 2 µM)
Method in brief: (§1)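 Lung cancer cell lines in 1536-well plates were dosed by pin tool the day after seeding, either with one drug alone or with a fixed anchor-drug dose plus five library-drug doses (not always all listed) in √10 steps. After 5 days, cells were fixed and their nuclei stained in one step (final 0.05% Triton X-100, 1% formaldehyde, 1 ug/ml Hoechst), then counted on 4× images. Relative viability is the nuclei count in treated wells divided by that in vehicle wells. Values are medians of duplicate plates.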

[2] = compound: C1COCCN1C2=NC(=NC3=C2OC4=C3C=CC=N4)C5=CC(=CC=C5)NC(=O)C6=CN=C(C=C6)N + NC(=O)Nc1cc(-c2cccc(F)c2)sc1C(=O)N[C@H]1CCCNC1 [AZD7762] (partner 0.2 µM)
Method in brief: as §1

[3] = compound: Nc1ccccc1NC(=O)c1ccc(CNC(=O)OCc2cccnc2)cc1 [Entinostat] + CC(=O)Nc1cccc(-n2c(=O)n(C3CC3)c(=O)c3c(Nc4ccc(I)cc4F)n(C)c(=O)c(C)c32)c1 [Trametinib] (partner 0.02 µM)
Method in brief: as §1

[4] = compound: Nc1ccccc1NC(=O)c1ccc(CNC(=O)OCc2cccnc2)cc1 [Entinostat] + O=C(c1cc(Cc2n[nH]c(=O)c3ccccc23)ccc1F)N1CCN(C(=O)C2CC2)CC1 [Olaparib] (partner 8 µM)
Method in brief: as §1

Row | Cell Line | relative viability ([1]; first compound 0.02 µM) | relative viability ([1]; first compound 0.06325 µM) | relative viability ([1]; first compound 0.2 µM) | relative viability ([1]; first compound 0.6325 µM) | relative viability ([1]; first compound 2 µM) | relative viability ([2]; first compound 0.02 µM) | relative viability ([2]; first compound 0.06325 µM) | relative viability ([2]; first compound 0.2 µM) | relative viability ([2]; first compound 0.6325 µM) | relative viability ([2]; first compound 2 µM) | relative viability ([3]; first compound 0.02 µM) | relative viability ([3]; first compound 0.06325 µM) | relative viability ([3]; first compound 0.2 µM) | relative viability ([3]; first compound 0.6325 µM) | relative viability ([3]; first compound 2 µM) | relative viability ([4]; first compound 0.02 µM) | relative viability ([4]; first compound 0.06325 µM) | relative viability ([4]; first compound 0.2 µM) | relative viability ([4]; first compound 0.6325 µM) | relative viability ([4]; first compound 2 µM)
1 | NCI-H1944 | 0.802 | 0.864 | 0.753 | 0.876 | 0.859 | 0.568 | 0.436 | 0.398 | 0.389 | 0.381 | 0.387 | 0.43 | 0.333 | 0.265 | 0.232 | 0.373 | 0.323 | 0.216 | 0.177 | 0.172
2 | NCI-H1975 | 0.836 | 0.841 | 0.817 | 0.874 | 0.395 | 0.72 | 0.67 | 0.608 | 0.557 | 0.51 | 0.373 | 0.32 | 0.313 | 0.223 | 0.169 | 0.73 | 0.637 | 0.484 | 0.324 | 0.211
3 | NCI-H1993 | 0.787 | 0.822 | 0.841 | 0.826 | 0.814 | 1.02 | 0.668 | 0.747 | 0.759 | 0.443 | 0.484 | 0.572 | 0.504 | 0.475 | 0.492 | 1.25 | 1.11 | 1.01 | 0.892 | 0.375
4 | NCI-H2085 | 0.77 | 0.771 | 0.744 | 0.726 | 0.65 | 0.934 | 0.969 | 0.874 | 0.646 | 0.598 | 0.552 | 0.765 | 0.508 | 0.499 | 0.408 | 0.755 | 0.726 | 0.717 | 0.592 | 0.378
5 | NCI-H2087 | 1.11 | 1.09 | 1.07 | 0.997 | 0.807 | 1.35 | 1.44 | 1.32 | 1.17 | 0.647 | 0.189 | 0.193 | 0.169 | 0.136 | 0.141 | 0.498 | 0.554 | 0.511 | 0.329 | 0.206
6 | NCI-H2126 | 0.729 | 0.754 | 0.722 | 0.776 | 0.67 | 0.989 | 1.03 | 1.03 | 0.989 | 0.736 | 0.592 | 0.506 | 0.525 | 0.347 | 0.312 | 0.953 | 0.925 | 0.886 | 0.742 | 0.539
7 | NCI-H2170 | 0.245 | 0.265 | 0.251 | 0.286 | 0.297 | 0.914 | 1.05 | 0.798 | 0.837 | 0.488 | 0.972 | 0.888 | 0.752 | 0.579 | 0.402 | 0.565 | 0.557 | 0.515 | 0.341 | 0.215
8 | NCI-H2347 | 0.993 | 0.787 | 0.929 | 0.944 | 0.933 | 0.768 | 0.787 | 0.683 | 0.666 | 0.618 | 0.254 | 0.273 | 0.218 | 0.205 | 0.222 | 0.636 | 0.537 | 0.455 | 0.35 | 0.32
9 | NCI-H2405 | 0.983 | 1.05 | 1.04 | 1.02 | 0.902 | 0.829 | 0.724 | 0.716 | 0.673 | 0.483 | 0.647 | 0.722 | 0.651 | 0.608 | 0.542 | 0.843 | 0.895 | 0.861 | 0.72 | 0.623
10 | NCI-H3122 | 0.958 | 1.08 | 1.04 | 1.07 | 0.88 | 0.973 | 1.01 | 0.99 | 0.973 | 0.667 | 0.265 | 0.259 | 0.27 | 0.208 | 0.212 | 0.653 | 0.622 | 0.604 | 0.517 | 0.452
11 | PC-3 [JPC-3] | 0.444 | 0.459 | 0.438 | 0.476 | 0.398 | 0.904 | 0.752 |  | 0.784 | 0.625 | 0.726 | 0.642 | 0.579 | 0.51 | 0.502 | 1.14 | 1.12 | 1.04 | 0.663 | 0.456
12 | PC-14 | 0.308 | 0.391 | 0.307 | 0.283 | 0.249 | 0.349 | 0.352 | 0.242 | 0.332 | 0.23 | 0.653 | 0.61 | 0.502 | 0.145 | 0.0754 | 0.291 | 0.294 | 0.321 | 0.104 | 0.0475
13 | RERF-LC-KJ | 0.976 | 0.922 | 0.844 | 0.769 | 0.65 | 0.882 | 1.18 | 0.997 | 0.945 | 0.794 | 0.915 | 0.833 | 0.726 | 0.418 | 0.323 | 0.901 | 0.903 | 0.795 | 0.373 | 0.282
